Where two headings read alike, the source gives them in different places.
Key:
[1] = system: LNCaP prostate cancer cell; experiment: LNCaP cell viability (CellTiter-Glo); assay type: cell-based; conditions: Homo sapiens, 72 h; LNCaP cell viability, 3 days, CellTiter-Glo; Table 4
Summary of the method: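 CellTiter-Glo luminescence measured three days after dosing with a 12-point 3-fold compound dilution series. LNCaP cells seeded at 5000/well in RPMI 1640 with 10% FBS; data normalized to untreated controls and IC50 fitted by nonlinear least-squares regression.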

[2] = target: P300 (Homo sapiens, UniProt Q09472); experiment: percentage of inhibition (degradation) of p300 at 10 nM, Tables 2-4; assay type: cell-based; parameters: LNCaP or 22RV1 cells that express CBP/P300 proteins were treated with GNE-781 or the bivalent compounds; endogenous in cells; host or cells: LNCaP or 22RV1 (not given); conditions: read-out: Degradation (10 nM)
Chain of P300 (Q09472 whole entry): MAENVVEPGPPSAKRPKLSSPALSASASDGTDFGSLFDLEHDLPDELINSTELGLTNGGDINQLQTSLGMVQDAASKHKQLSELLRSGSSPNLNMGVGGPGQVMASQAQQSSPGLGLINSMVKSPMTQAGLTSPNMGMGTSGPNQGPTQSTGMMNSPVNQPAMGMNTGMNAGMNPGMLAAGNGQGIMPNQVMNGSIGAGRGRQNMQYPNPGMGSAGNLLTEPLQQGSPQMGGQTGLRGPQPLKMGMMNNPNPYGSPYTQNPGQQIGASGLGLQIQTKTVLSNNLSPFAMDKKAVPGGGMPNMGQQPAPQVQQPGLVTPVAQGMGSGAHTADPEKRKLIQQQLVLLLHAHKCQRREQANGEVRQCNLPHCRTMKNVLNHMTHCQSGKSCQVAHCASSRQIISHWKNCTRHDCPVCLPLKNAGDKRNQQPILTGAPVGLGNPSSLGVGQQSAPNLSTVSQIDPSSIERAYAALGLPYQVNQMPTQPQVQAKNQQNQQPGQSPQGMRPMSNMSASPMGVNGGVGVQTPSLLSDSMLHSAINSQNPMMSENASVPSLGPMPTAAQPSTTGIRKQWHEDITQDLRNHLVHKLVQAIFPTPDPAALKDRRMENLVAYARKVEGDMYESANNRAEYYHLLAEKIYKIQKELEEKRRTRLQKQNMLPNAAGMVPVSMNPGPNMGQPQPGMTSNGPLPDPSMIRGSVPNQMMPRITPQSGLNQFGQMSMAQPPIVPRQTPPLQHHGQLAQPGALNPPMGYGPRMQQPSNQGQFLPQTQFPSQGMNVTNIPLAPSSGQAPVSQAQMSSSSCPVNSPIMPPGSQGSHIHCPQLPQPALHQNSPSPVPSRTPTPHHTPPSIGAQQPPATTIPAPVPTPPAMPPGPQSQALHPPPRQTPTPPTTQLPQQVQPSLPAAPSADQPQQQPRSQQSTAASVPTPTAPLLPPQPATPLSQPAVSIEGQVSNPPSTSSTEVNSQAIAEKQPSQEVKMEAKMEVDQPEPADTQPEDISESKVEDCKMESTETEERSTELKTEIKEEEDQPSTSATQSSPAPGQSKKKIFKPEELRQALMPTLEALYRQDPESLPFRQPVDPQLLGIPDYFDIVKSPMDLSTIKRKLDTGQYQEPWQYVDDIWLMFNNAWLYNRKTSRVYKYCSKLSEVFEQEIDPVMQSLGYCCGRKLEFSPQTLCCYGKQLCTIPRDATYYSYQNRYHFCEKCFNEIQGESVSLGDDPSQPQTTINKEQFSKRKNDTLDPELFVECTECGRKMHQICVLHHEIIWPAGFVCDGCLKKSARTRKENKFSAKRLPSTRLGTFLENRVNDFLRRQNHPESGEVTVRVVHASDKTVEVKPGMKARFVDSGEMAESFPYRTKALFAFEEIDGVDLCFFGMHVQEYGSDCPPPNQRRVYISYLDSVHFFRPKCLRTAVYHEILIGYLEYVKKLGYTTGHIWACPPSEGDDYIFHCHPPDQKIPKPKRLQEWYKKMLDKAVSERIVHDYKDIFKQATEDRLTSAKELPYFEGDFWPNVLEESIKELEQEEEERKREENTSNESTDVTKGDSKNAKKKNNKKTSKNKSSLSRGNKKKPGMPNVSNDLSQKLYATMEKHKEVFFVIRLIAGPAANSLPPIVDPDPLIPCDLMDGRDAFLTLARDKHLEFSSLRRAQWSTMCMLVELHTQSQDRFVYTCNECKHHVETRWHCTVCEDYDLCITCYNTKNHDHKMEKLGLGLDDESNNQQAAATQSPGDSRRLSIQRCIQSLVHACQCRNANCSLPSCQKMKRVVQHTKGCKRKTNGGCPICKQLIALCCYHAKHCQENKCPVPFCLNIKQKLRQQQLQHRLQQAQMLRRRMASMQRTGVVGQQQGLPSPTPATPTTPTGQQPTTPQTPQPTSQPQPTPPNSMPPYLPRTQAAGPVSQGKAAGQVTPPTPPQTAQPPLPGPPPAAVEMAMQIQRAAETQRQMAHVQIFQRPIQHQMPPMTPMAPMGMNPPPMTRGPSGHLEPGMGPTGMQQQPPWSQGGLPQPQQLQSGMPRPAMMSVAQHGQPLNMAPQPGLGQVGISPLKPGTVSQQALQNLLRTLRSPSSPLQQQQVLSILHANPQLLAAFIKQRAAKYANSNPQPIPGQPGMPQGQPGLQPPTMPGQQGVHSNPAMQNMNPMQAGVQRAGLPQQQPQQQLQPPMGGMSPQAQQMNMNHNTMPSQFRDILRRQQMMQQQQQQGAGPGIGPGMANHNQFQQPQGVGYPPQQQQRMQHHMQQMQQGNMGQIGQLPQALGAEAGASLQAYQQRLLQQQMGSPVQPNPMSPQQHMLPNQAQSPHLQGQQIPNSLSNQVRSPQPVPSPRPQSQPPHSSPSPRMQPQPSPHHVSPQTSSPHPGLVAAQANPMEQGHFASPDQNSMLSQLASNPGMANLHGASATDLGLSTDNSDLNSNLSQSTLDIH
Summary of the method: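 Degradation was measured at 10 nM. Cells or tissue were lysed in RIPA with protease and phosphatase inhibitors for 30 min at 4 °C and cleared, and protein was quantified by BCA. Lysates were resolved by SDS-PAGE, detected by chemiluminescent immunoblot, and bands were quantified by densitometry.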

SMILES | IC50 [1] [nM] | inhibition at 0.01 µM [2] [%] | inhibition at 0.01 µM ([2]; p300, 10 nM, Table 4) [%]
CC(=O)N1CCc2c(c(N3CCCc4cc(-c5cnn(C)c5)c(C(F)F)cc43)nn2C2CCN(CCN3CCOC(CNc4cccc5c4C(=O)N(C4CCC(=O)NC4=O)C5)C3)CC2)C1 (stereo not drawn) [P-198, 3-(7-(((4-(2-(4-(5-acetyl-3-(7-(difluoromethyl)-6-(1-methyl-1H-pyrazol-4-yl)-3,4-dihydroquinolin-1(2H)-yl)-4,5,6,7-tetrahydro-1H-pyrazolo[4,3-c]pyridin-1-yl)piperidin-1-yl)ethyl)morpholin-2-yl)methyl)amino)-1-oxoisoindolin-2-yl)piperidine-2,6-dione] | 2.4 | > 80 | –
CC(=O)N1CCc2c(c(N3CCCc4cc(-c5cnn(C)c5)c(C(F)F)cc43)nn2C2CCN(Cc3ccc(CNc4cccc5c4CN(C4CCC(=O)NC4=O)C5=O)cc3)CC2)C1 (stereo not drawn) [P-200] | 7.9 | – | 50 to 80
CC(=O)N1CCc2c(c(N3CCCc4cc(-c5cnn(C)c5)c(C(F)F)cc43)nn2C2CCN(CCCCC3CN(c4cccc5c4C(=O)N(C4CCC(=O)NC4=O)C5=O)C3)CC2)C1 (stereo not drawn) [P-201, 4-(3-(4-(4-(5-acetyl-3-(7-(difluoromethyl)-6-(1-methyl-1H-pyrazol-4-yl)-3,4-dihydroquinolin-1(2H)-yl)-4,5,6,7-tetrahydro-1H-pyrazolo[4,3-c]pyridin-1-yl)piperidin-1-yl)butyl)azetidin-1-yl)-2-(2,6-dioxopiperidin-3-yl)isoindoline-1,3-dione] | 10.4 | – | > 80
CC(=O)N1CCc2c(c(N3CCCc4cc(-c5cnn(C)c5)c(C(F)F)cc43)nn2C2CCN(Cc3cccc(COc4cccc5c4CN(C4CCC(=O)NC4=O)C5=O)c3)CC2)C1 (stereo not drawn) [P-202, 3-(4-((3-((4-(5-acetyl-3-(7-(difluoromethyl)-6-(1-methyl-1H-pyrazol-4-yl)-3,4-dihydroquinolin-1(2H)-yl)-4,5,6,7-tetrahydro-1H-pyrazolo[4,3-c]pyridin-1-yl)piperidin-1-yl)methyl)benzyl)oxy)-1-oxoisoindolin-2-yl)piperidine-2,6-dione] | 3.1 | – | 50 to 80
CC(=O)N1CCc2c(c(N3CCCc4cc(-c5cnn(C)c5)c(C(F)F)cc43)nn2C2CCN(C(=O)CCN3CCC(Cn4c(=O)n(C5CCC(=O)NC5=O)c5ccccc54)CC3)CC2)C1 (stereo not drawn) [P-205, 3-(3-((1-(3-(4-(5-acetyl-3-(7-(difluoromethyl)-6-(1-methyl-1H-pyrazol-4-yl)-3,4-dihydroquinolin-1(2H)-yl)-4,5,6,7-tetrahydro-1H-pyrazolo[4,3-c]pyridin-1-yl)piperidin-1-yl)-3-oxopropyl)piperidin-4-yl)methyl)-2-oxo-2,3-dihydro-1H-benzo[d]imidazol-1-yl)piperidine-2,6-dione] | 158 | – | < 20
CC(=O)N1CCc2c(c(N3CCCc4cc(-c5cnn(C)c5)c(C(F)F)cc43)nn2C2CCN(C(=O)CCN3CCN(Cc4cccc5c4n(C)c(=O)n5C4CCC(=O)NC4=O)CC3)CC2)C1 (stereo not drawn) [P-208, 3-(4-((4-(3-(4-(5-Acetyl-3-(7-(difluoromethyl)-6-(1-methyl-1H-pyrazol-4-yl)-3,4-dihydroquinolin-1(2H)-yl)-4,5,6,7-tetrahydro-1H-pyrazolo[4,3-c]pyridin-1-yl)piperidin-1-yl)-3-oxopropyl)piperazin-1-yl)methyl)-3-methyl-2-oxo-2,3-dihydro-1H-benzo[d]imidazol-1-yl)piperidine-2,6-dione] | 19.7 | – | > 80
CC(=O)N1CCc2c(c(N3CCCc4cc(-c5cnn(C)c5)c(C(F)F)cc43)nn2C2CCN(C(=O)CCCN3CCC(C#Cc4ccc5c(c4)n(C)c(=O)n5C4CCC(=O)NC4=O)CC3)CC2)C1 (stereo not drawn) [P-211, 3-(5-((1-(4-(4-(5-acetyl-3-(7-(difluoromethyl)-6-(1-methyl-1H-pyrazol-4-yl)-3,4-dihydroquinolin-1(2H)-yl)-4,5,6,7-tetrahydro-1H-pyrazolo[4,3-c]pyridin-1-yl)piperidin-1-yl)-4-oxobutyl)piperidin-4-yl)ethynyl)-3-methyl-2-oxo-2,3-dihydro-1H-benzo[d]imidazol-1-yl)piperidine-2,6-dione] | 3.5 | – | > 80
CC(=O)N1CCc2c(c(N3CCCc4cc(-c5cnn(C)c5)c(C(F)F)cc43)nn2C2CCN(C(=O)CCN3CCC(C#Cc4ccc5c(c4)n(C)c(=O)n5C4CCC(=O)NC4=O)CC3)CC2)C1 (stereo not drawn) [P-212, 3-(5-((1-(3-(4-(5-acetyl-3-(7-(difluoromethyl)-6-(1-methyl-1H-pyrazol-4-yl)-3,4-dihydroquinolin-1(2H)-yl)-4,5,6,7-tetrahydro-1H-pyrazolo[4,3-c]pyridin-1-yl)piperidin-1-yl)-3-oxopropyl)piperidin-4-yl)ethynyl)-3-methyl-2-oxo-2,3-dihydro-1H-benzo[d]imidazol-1-yl)piperidine-2,6-dione] | 5.5 | – | > 80
CC(=O)N1CCc2c(c(N3CCCc4cc(-c5cnn(C)c5)c(C(F)F)cc43)nn2C2CCN(C(=O)CCN3CCC(CNc4cccc5c4n(C)c(=O)n5C4CCC(=O)NC4=O)CC3)CC2)C1 (stereo not drawn) [P-213, 3-(4-(((1-(3-(4-(5-Acetyl-3-(7-(difluoromethyl)-6-(1-methyl-1H-pyrazol-4-yl)-3,4-dihydroquinolin-1(2H)-yl)-4,5,6,7-tetrahydro-1H-pyrazolo[4,3-c]pyridin-1-yl)piperidin-1-yl)-3-oxopropyl)piperidin-4-yl)methyl)amino)-3-methyl-2-oxo-2,3-dihydro-1H-benzo[d]imidazol-1-yl)piperidine-2,6-dione] | 96.8 | – | < 20
CC(=O)N1CCc2c(c(N3CCCc4cc(-c5cnn(C)c5)c(C(F)F)cc43)nn2C2CCN(C(=O)CCCN3CCC(CNc4cccc5c4n(C)c(=O)n5C4CCC(=O)NC4=O)CC3)CC2)C1 (stereo not drawn) [P-214, 3-(4-(((1-(4-(4-(5-Acetyl-3-(7-(difluoromethyl)-6-(1-methyl-1H-pyrazol-4-yl)-3,4-dihydroquinolin-1(2H)-yl)-4,5,6,7-tetrahydro-1H-pyrazolo[4,3-c]pyridin-1-yl)piperidin-1-yl)-4-oxobutyl)piperidin-4-yl)methyl)amino)-3-methyl-2-oxo-2,3-dihydro-1H-benzo[d]imidazol-1-yl)piperidine-2,6-dione] | 51.2 | – | 20 to 50
CC(=O)N1CCc2c(c(N3CCCc4cc(-c5cnn(C)c5)c(C(F)F)cc43)nn2C2CCN(C(=O)CCCN3CCN(Cc4ccc5c(c4)n(C)c(=O)n5C4CCC(=O)NC4=O)CC3)CC2)C1 (stereo not drawn) [P-215, 3-(5-((4-(4-(4-(5-Acetyl-3-(7-(difluoromethyl)-6-(1-methyl-1H-pyrazol-4-yl)-3,4-dihydroquinolin-1(2H)-yl)-4,5,6,7-tetrahydro-1H-pyrazolo[4,3-c]pyridin-1-yl)piperidin-1-yl)-4-oxobutyl)piperazin-1-yl)methyl)-3-methyl-2-oxo-2,3-dihydro-1H-benzo[d]imidazol-1-yl)piperidine-2,6-dione] | 33.1 | – | 20 to 50
CC(=O)N1CCc2c(c(N3CCCc4cc(-c5cnn(C)c5)c(C(F)F)cc43)nn2C2CCN(C(=O)CCN3CCN(Cc4ccc5c(c4)n(C)c(=O)n5C4CCC(=O)NC4=O)CC3)CC2)C1 (stereo not drawn) [P-216, 3-(5-((4-(3-(4-(5-Acetyl-3-(7-(difluoromethyl)-6-(1-methyl-1H-pyrazol-4-yl)-3,4-dihydroquinolin-1(2H)-yl)-4,5,6,7-tetrahydro-1H-pyrazolo[4,3-c]pyridin-1-yl)piperidin-1-yl)-3-oxopropyl)piperazin-1-yl)methyl)-3-methyl-2-oxo-2,3-dihydro-1H-benzo[d]imidazol-1-yl)piperidine-2,6-dione] | 26.8 | – | 20 to 50
CC(=O)N1CCc2c(c(N3CCCc4cc(-c5cnn(C)c5)c(C(F)F)cc43)nn2C2CCN(C(=O)CCCN3CCC(CNc4ccc5c(c4)n(C)c(=O)n5C4CCC(=O)NC4=O)CC3)CC2)C1 (stereo not drawn) [P-217, 3-(5-(((1-(4-(4-(5-Acetyl-3-(7-(difluoromethyl)-6-(1-methyl-1H-pyrazol-4-yl)-3,4-dihydroquinolin-1(2H)-yl)-4,5,6,7-tetrahydro-1H-pyrazolo[4,3-c]pyridin-1-yl)piperidin-1-yl)-4-oxobutyl)piperidin-4-yl)methyl)amino)-3-methyl-2-oxo-2,3-dihydro-1H-benzo[d]imidazol-1-yl)piperidine-2,6-dione] | 21.6 | – | 50 to 80
CC(=O)N1CCc2c(c(N3CCCc4cc(-c5cnn(C)c5)c(C(F)F)cc43)nn2C2CCN(C(=O)CCN3CCC(CNc4ccc5c(c4)n(C)c(=O)n5C4CCC(=O)NC4=O)CC3)CC2)C1 (stereo not drawn) [P-218, 3-(5-(((1-(3-(4-(5-Acetyl-3-(7-(difluoromethyl)-6-(1-methyl-1H-pyrazol-4-yl)-3,4-dihydroquinolin-1(2H)-yl)-4,5,6,7-tetrahydro-1H-pyrazolo[4,3-c]pyridin-1-yl)piperidin-1-yl)-3-oxopropyl)piperidin-4-yl)methyl)amino)-3-methyl-2-oxo-2,3-dihydro-1H-benzo[d]imidazol-1-yl)piperidine-2,6-dione] | 18.7 | – | > 80
CC(=O)N1CCc2c(c(N3CCCc4cc(-c5cnn(C)c5)c(C(F)F)cc43)nn2C2CCN(C(=O)CN3CCN(CC#Cc4ccc5c(c4)n(C)c(=O)n5C4CCC(=O)NC4=O)CC3)CC2)C1 (stereo not drawn) [P-219, 3-(5-(3-(4-(2-(4-(5-Acetyl-3-(7-(difluoromethyl)-6-(1-methyl-1H-pyrazol-4-yl)-3,4-dihydroquinolin-1(2H)-yl)-4,5,6,7-tetrahydro-1H-pyrazolo[4,3-c]pyridin-1-yl)piperidin-1-yl)-2-oxoethyl)piperazin-1-yl)prop-1-yn-1-yl)-3-methyl-2-oxo-2,3-dihydro-1H-benzo[d]imidazol-1-yl)piperidine-2,6-dione] | 64.7 | – | 20 to 50

From patent publication US20240100170A1, “CYCLIC-AMP RESPONSE ELEMENT BINDING PROTEIN (CBP) AND/OR ADENOVIRAL E1A BINDING PROTEIN OF 300 KDA (P300) DEGRADATION COMPOUNDS AND METHODS OF USE” (CULLGEN (SHANGHAI), INC., priority 2020, published 2024)
